In ChEMBL document CHEMBL1201862, “PubChem BioAssay data set” (2004):
Activity calls are given as the source filed them.

How the values were obtained:
[1] = target: T1, Rac GTPase-activating protein 1 (Homo sapiens, UniProt Q9H0H5); experiment: MgcRacGAP GTPase-activating activity inhibitors, confirmation, biochemical, ADP Hunter fluorescence, primary and confirmatory (AID 624330); format: functional
T1 sequence (Q9H0H5 whole entry): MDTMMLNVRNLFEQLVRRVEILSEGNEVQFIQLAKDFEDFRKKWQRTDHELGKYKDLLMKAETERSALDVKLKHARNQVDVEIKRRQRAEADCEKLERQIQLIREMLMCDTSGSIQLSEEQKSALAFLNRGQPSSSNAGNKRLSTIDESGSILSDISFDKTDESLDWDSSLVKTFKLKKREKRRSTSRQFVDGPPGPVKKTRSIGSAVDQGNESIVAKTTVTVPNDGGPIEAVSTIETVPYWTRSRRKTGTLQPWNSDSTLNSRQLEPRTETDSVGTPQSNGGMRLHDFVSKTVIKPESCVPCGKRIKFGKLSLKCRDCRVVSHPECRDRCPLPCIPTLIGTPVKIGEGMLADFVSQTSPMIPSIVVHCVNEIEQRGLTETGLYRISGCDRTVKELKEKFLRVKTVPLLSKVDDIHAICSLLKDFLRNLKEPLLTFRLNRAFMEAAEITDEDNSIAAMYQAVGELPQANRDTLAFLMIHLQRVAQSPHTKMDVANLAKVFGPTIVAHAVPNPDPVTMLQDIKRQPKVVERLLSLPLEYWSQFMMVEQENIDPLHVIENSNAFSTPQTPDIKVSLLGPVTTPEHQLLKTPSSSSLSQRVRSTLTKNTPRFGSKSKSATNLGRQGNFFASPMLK

[2] = target: T2, Cytochrome P450 1A2 (Homo sapiens, UniProt P05177);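 also: PubChem cytochrome P450 panel assay, CYP1A2 panel member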
T2 sequence (P05177 whole entry): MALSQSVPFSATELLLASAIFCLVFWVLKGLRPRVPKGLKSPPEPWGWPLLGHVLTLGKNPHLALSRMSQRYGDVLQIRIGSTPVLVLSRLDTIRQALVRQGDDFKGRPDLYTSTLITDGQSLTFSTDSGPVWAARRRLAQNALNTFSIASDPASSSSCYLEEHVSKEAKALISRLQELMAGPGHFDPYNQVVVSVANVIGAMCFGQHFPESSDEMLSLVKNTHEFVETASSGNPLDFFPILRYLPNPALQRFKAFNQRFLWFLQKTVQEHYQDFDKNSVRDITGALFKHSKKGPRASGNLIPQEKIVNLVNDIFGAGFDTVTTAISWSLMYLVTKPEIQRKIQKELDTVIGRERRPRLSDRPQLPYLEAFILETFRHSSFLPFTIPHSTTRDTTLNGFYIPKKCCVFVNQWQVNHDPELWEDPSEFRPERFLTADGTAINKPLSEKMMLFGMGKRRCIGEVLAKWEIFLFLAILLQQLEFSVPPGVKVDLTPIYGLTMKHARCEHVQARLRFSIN

[3] = target: Cytochrome P450 2C9 (Homo sapiens, UniProt P11712)
[4] = target: Cytochrome P450 3A4 (Homo sapiens, UniProt P08684);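 also: CYP3A4 tested as one member of a cytochrome P450 panel screen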
[5] = target: Cytochrome P450 2C19 (Homo sapiens, UniProt P33261); experiment: Cytochrome panel assay with activity outcomes. Panel member name: p450-cyp2c19 Compounds with AC50 equal or less than 10 uM are considered active; format: functional
Chain of Cytochrome P450 2C19 (P33261 whole entry): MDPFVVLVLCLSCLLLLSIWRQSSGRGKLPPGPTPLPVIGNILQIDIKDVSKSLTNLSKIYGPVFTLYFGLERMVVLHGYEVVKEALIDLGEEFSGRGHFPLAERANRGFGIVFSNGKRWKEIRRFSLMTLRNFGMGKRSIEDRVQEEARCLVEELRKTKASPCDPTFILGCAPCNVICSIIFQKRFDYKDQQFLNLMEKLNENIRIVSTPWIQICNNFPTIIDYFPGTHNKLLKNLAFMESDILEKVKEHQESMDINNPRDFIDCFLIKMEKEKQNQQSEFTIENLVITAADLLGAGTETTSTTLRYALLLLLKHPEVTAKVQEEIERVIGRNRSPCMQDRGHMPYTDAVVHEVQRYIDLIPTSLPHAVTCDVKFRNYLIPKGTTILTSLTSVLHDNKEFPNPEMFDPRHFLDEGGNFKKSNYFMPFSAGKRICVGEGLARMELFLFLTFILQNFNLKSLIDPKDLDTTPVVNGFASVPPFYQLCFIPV

Chain of Cytochrome P450 3A4 (P08684 whole entry): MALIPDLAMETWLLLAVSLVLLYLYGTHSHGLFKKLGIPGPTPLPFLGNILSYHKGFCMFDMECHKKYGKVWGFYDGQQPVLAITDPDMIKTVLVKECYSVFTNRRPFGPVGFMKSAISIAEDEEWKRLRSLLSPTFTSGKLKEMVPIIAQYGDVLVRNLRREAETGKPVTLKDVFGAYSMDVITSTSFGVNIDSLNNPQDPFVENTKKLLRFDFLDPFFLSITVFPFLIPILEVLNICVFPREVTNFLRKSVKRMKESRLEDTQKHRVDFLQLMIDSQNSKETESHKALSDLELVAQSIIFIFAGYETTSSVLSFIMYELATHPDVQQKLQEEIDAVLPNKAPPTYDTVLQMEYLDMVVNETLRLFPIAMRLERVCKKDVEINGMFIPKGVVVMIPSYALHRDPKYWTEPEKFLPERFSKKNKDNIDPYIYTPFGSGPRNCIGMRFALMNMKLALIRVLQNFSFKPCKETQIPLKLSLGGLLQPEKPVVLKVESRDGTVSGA
Chain of Cytochrome P450 2C9 (P11712 whole entry): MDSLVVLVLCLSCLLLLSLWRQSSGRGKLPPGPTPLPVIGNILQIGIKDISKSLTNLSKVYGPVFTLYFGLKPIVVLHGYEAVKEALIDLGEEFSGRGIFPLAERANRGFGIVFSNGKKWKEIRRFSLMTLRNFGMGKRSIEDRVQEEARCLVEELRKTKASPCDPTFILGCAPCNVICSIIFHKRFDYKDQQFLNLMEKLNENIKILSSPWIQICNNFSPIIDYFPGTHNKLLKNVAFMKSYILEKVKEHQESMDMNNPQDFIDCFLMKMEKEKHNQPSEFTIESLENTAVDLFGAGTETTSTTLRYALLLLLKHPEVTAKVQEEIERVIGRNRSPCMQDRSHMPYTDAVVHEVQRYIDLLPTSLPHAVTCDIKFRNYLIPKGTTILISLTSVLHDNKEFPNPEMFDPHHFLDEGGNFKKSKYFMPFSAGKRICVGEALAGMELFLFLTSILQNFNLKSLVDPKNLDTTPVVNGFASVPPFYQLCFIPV

SMILES | IC50 [1] | AC50 [2] | further results
Cc1ccccc1C(OCC(O)CN1CCN(CCO)CC1)c1ccccc1 (stereo not drawn) | 80.2 µM (active) |  | 
CCC(C)(C)n1nnnc1C(c1cc2cc3c(cc2nc1O)OCO3)N1CCCCC1 (stereo not drawn) |  | 17.8 µM (inconclusive) | AC50 [3]: 0.02 µM (inconclusive)
CCC(=O)OCc1c(C(F)(F)F)nn(C)c1Sc1ccc(F)cc1 |  | 12.6 µM (inconclusive) | AC50 [4]: 25.1 µM (inconclusive)
Cc1ccc(C)c(OCCCCN2CCCCC2)c1 | 176 µM (active) |  | 
O=C(O)c1cc2cc(OCc3ccccc3)ccc2[nH]1 |  | 6.31 µM (inconclusive) | AC50 [3]: 25.1 µM (inconclusive)
O=C(CNC(=O)c1ccncc1)N/N=C/c1ccc(O)cc1O | 75.5 µM (active) |  | 
N[C@@H](COP(=O)(O)O)C(=O)O [DEXFOSFOSERINE] |  | 25.1 µM (inconclusive) | AC50 [5]: inconclusive; AC50 [4]: 0.794 µM (inconclusive)

Second part, led by results:

IC50 [1] | AC50 [2] | SMILES | further results
158 µM (active) |  | CC1=CC(C)(C)N(C(=O)CNC2CCCC2)c2cc(C)ccc21 | 
26.9 µM (active) |  | CCCCn1c(C)cc2cc(O)ccc21 | 
47 µM (active) |  | O=C(CN1CCN(c2ccc(O)cc2)CC1)NCC(=O)Nc1ccc(F)c(F)c1F | 
41.8 µM (active) |  | Cc1c(O)ccc(NC(=O)/C=C/c2ccccc2)c1C | 
26.6 µM (active) |  | CC1CCC/C(=C\c2ccc(O)cc2)C1=O (stereo not drawn) | 
123 µM (active) |  | CC(C)(C)c1nnc(N/N=C/c2ccc(O)cc2)n(N)c1=O | 
